Measured values published in ChEMBL document CHEMBL1212769, “Multiple-dose safety, tolerability, and pharmacokinetics of oral nemonoxacin (TG-873870) in healthy volunteers” (Antimicrob Agents Chemother, 2010).

Legend:
[1] = Renal clearance in human at 75 […], po measured on day 10; format: ADME, organism-based, Kidney; design: route oral; settings: in vivo, read-out: CL_renal (converted)
[2] = AUC (0 to 24 hrs)in human at 500 mg/kg, po measured on day 10; format: ADME, organism-based; design: time < 24 hr, dose 500 mg/kg, route oral; settings: plasma
[3] = AUC (0 to last) in human at 1000 […], po measured on day 1; format: ADME, organism-based; design: time 0 - last, dose 1000 mg/kg, route oral; settings: plasma
[4] = AUC (0 to 24 hrs) in human at 500 mg/kg, po measured on day 16; format: ADME, organism-based; design: time < 24 hr, dose 500 mg/kg, route oral; settings: plasma
[5] = Tmax in human at 500 […], po measured on day 10; format: ADME, organism-based; design: dose 500 mg/kg, route oral; settings: in vivo
[6] = Tmax in human at 500 […], po measured on day 1; format: ADME, organism-based; design: route oral; settings: in vivo
[7] = Oral clearance in human at 750 […] measured on day 1; format: ADME, organism-based; settings: in vivo
[8] = Tmax in human at 250 […], po measured on day 10; format: ADME, organism-based; design: dose 250 mg/kg, route oral; settings: in vivo
Homo sapiens [9] = experiment: Toxicity in human assessed as occurrence of pollakiuria at 250 […], po administered as single dose; format: organism-based; design: route oral; settings: in vivo
[10] = AUC (0 to last) in human at 500 mg/kg, po measured on day 10; format: ADME, organism-based; design: time 0 - last, dose 500 mg/kg, route oral; settings: plasma
[11] = Oral clearance in human at 1000 […] measured on day 1; format: ADME, organism-based; design: dose 1000 mg/kg; settings: in vivo
Homo sapiens [12] = experiment: Toxicity in human assessed as incidence of headache at 1000 […], po administered as single dose; format: organism-based; design: route oral; settings: in vivo
[13] = Tmax in human at 75 […], po measured on day 10; format: ADME, organism-based; design: dose 75 mg/kg, route oral; settings: in vivo
[14] = Clearance in human assessed as compound recovered in urine at 500 mg/kg, po measured on day 10 up to 24 hrs post dose; format: ADME, organism-based; design: dose 500 mg/kg, route oral; settings: read-out: amount in urine
[15] = AUC (0 to last) in human at 75 mg/kg, po measured on day 1; format: ADME, organism-based; design: time 0 - last, dose 75 mg/kg, route oral; settings: plasma
Homo sapiens [16] = experiment: Toxicity in human assessed as occurrence of rashes at 1000 […], po administered as single dose; format: organism-based; design: route oral; settings: in vivo
Streptococcus pneumoniae = experiment: Ratio of fAUC (0 to 24 hrs) to MIC90 for Streptococcus pneumoniae; format: functional
Homo sapiens [17] = experiment: Toxicity in human assessed as occurrence of pruritus at 250 […], po administered as single dose; format: organism-based; design: route oral; settings: in vivo
Homo sapiens [18] = experiment: Toxicity in human assessed as occurrence of diarrhea at 250 […], po administered as single dose; format: organism-based; design: route oral; settings: in vivo
[19] = Oral clearance in human at 500 mg/kg measured on day 1; format: ADME, organism-based; design: dose 500 mg/kg; settings: in vivo
[20] = Terminal half life in human at 250 […], po measured on day 10; format: ADME, organism-based; design: route oral; settings: in vivo, read-out: beta t1/2 (converted)
[21] = Clearance in human assessed as compound recovered in urine at 750 mg/kg, po measured on day 10 up to 24 hrs post dose; format: ADME, organism-based; design: dose 750 mg/kg, route oral; settings: read-out: amount in urine
Homo sapiens [22] = experiment: Toxicity in human assessed as occurrence of dermatitis at 750 […], po administered as single dose; format: organism-based; design: route oral; settings: in vivo
[23] = Renal clearance in human at 500 […], po measured on day 10; format: ADME, organism-based, Kidney; design: route oral; settings: in vivo, read-out: CL_renal (converted)
[24] = Oral clearance in human at 500 mg/kg measured on day 16; format: ADME, organism-based; design: dose 500 mg/kg; settings: in vivo
Homo sapiens [25] = experiment: Toxicity in human assessed as occurrence of diarrhea at 750 […], po administered as single dose; format: organism-based; design: route oral; settings: in vivo
Homo sapiens [26] = experiment: Toxicity in human assessed as occurrence of pruritus at 75 […], po administered as single dose; format: organism-based; design: route oral; settings: in vivo
[27] = Terminal half life in human at 75 […], po measured on day 10; format: ADME, organism-based; design: route oral; settings: in vivo, read-out: beta t1/2 (converted)
[28] = Tmax in human at 75 […], po measured on day 1; format: ADME, organism-based; design: route oral; settings: in vivo
[29] = Oral clearance in human at 500 mg/kg measured on day 10; format: ADME, organism-based; design: dose 500 mg/kg; settings: in vivo
[30] = Renal clearance in human at 1000 […], po measured on day 10; format: ADME, organism-based, Kidney; design: route oral; settings: in vivo, read-out: CL_renal (converted)
[31] = Cmax in human at 500 […], po measured on day 16; format: ADME, organism-based; design: dose 500 mg/kg, route oral; settings: in vivo
[32] = Clearance in human assessed as compound recovered in urine at 75 mg/kg, po measured on day 10 up to 24 hrs post dose; format: ADME, organism-based; design: dose 75 mg/kg, route oral; settings: read-out: amount in urine
[33] = AUC (0 to last) in human at 75 mg/kg, po measured on day 10; format: ADME, organism-based; design: time 0 - last, dose 75 mg/kg, route oral; settings: plasma
[34] = Oral clearance in human at 1000 […] measured on day 10; format: ADME, organism-based; design: dose 1000 mg/kg; settings: in vivo
[35] = Cmax in human at 750 […], po measured on day 1; format: ADME, organism-based; design: dose 750 mg/kg, route oral; settings: in vivo
[36] = Renal clearance in human at 1000 […], po measured on day 1; format: ADME, organism-based, Kidney; design: route oral; settings: in vivo, read-out: CL_renal (converted)
[37] = Clearance in human assessed as compound recovered in urine at 1000 […], po measured on day 1 up to 24 hrs post dose; format: ADME, organism-based; design: dose 1000 mg/kg, route oral; settings: read-out: amount in urine
[38] = Oral clearance in human at 750 […] measured on day 10; format: ADME, organism-based; settings: in vivo
[39] = Oral clearance in human at 250 mg/kg measured on day 1; format: ADME, organism-based; design: dose 250 mg/kg; settings: in vivo
[40] = AUC(0 to last) in human at 500 mg/kg, po measured on day 1; format: ADME, organism-based; design: time 0 - last, dose 500 mg/kg, route oral; settings: plasma
[41] = AUC (0 to 24 hrs) in human at 750 mg/kg, po measured on day 1; format: ADME, organism-based; design: time < 24 hr, dose 750 mg/kg, route oral; settings: plasma
[42] = Terminal half life in human at 750 […], po measured on day 10; format: ADME, organism-based; design: route oral; settings: in vivo, read-out: beta t1/2 (converted)
[43] = Oral clearance in human at 75 mg/kg measured on day 10; format: ADME, organism-based; design: dose 75 mg/kg; settings: in vivo
[44] = Renal clearance in human at 750 […], po measured on day 1; format: ADME, organism-based, Kidney; design: route oral; settings: in vivo, read-out: CL_renal (converted)
[45] = Tmax in human at 250 […], po measured on day 1; format: ADME, organism-based; design: route oral; settings: in vivo
[46] = AUC (0 to last) in human at 250 mg/kg, po measured on day 1; format: ADME, organism-based; design: time 0 - last, dose 250 mg/kg, route oral; settings: plasma
Homo sapiens [47] = experiment: Toxicity in human assessed as occurrence of rashes at 250 […], po administered as single dose; format: organism-based; design: route oral; settings: in vivo
Homo sapiens [48] = experiment: Toxicity in human assessed as occurrence of diarrhea at 500 […], po administered as single dose; format: organism-based; design: route oral; settings: in vivo
[49] = Tmax in human at 1000 […], po measured on day 10; format: ADME, organism-based; design: route oral; settings: in vivo
[50] = Clearance in human assessed as compound recovered in urine at 750 mg/kg, po measured on day 1 up to 24 hrs post dose; format: ADME, organism-based; design: dose 750 mg/kg, route oral; settings: read-out: amount in urine
Homo sapiens [51] = experiment: Toxicity in human assessed as occurrence of diarrhea at […], po administered as single dose; format: organism-based; design: route oral; dose or concentration left out as unconfirmed; settings: in vivo
[52] = Cmax in human at 1000 […], po measured on day 10; format: ADME, organism-based; design: dose 1000 mg/kg, route oral; settings: in vivo
[53] = AUC (0 to 24 hrs) in human at 1000 […], po measured on day 1; format: ADME, organism-based; design: time < 24 hr, dose 1000 mg/kg, route oral; settings: plasma

CL renal [1]: 168 mL/min
AUC at 24 h [2]: 38600 ng·h/mL
AUC(0-t) [3]: 59600 ng·h/mL
AUC at 24 h [4]: 22700 ng·h/mL
Tmax [5]: 1.31 h
Tmax [6]: 1 h
CL/F [7]: 252 mL/min
Tmax [8]: 1.09 h
AUC(0-t) [10]: 46700 ng·h/mL
CL/F [11]: 262 mL/min
Tmax [13]: 0.92 h
dose excreted at 24 h [14]: 57.8%
AUC(0-t) [15]: 3780 ng·h/mL
CL/F [19]: 242 mL/min
half-life [20]: 17.6 h
dose excreted at 24 h [21]: 41.8%
CL renal [23]: 131 mL/min
CL/F [24]: 313 mL/min
half-life [27]: 23 h
Tmax [28]: 1.09 h
CL/F [29]: 184 mL/min
CL renal [30]: 115 mL/min
Cmax [31]: 2750 ng/mL
dose excreted at 24 h [32]: 56.7%
AUC(0-t) [33]: 5450 ng·h/mL
CL/F [34]: 193 mL/min
Cmax [35]: 5750 ng/mL
CL renal [36]: 125 mL/min
dose excreted at 24 h [37]: 47.9%
CL/F [38]: 189 mL/min
CL/F [39]: 279 mL/min
AUC(0-t) [40]: 31600 ng·h/mL
AUC(0-t) at 24 h [41]: 46100 ng·h/mL
half-life [42]: 19.7 h
CL/F [43]: 224 mL/min
CL renal [44]: 133 mL/min
Tmax [45]: 1.25 h
AUC(0-t) [46]: 13700 ng·h/mL
Tmax [49]: 2.07 h
dose excreted at 24 h [50]: 47.1%
Cmax [52]: 8200 ng/mL
AUC(0-t) at 24 h [53]: 59600 ng·h/mL
SMILES: COc1c(N2C[C@@H](C)C[C@H](N)C2)ccc2c(=O)c(C(=O)O)cn(C3CC3)c12 [NEMONOXACIN]
Activity (Homo sapiens [9]): 0%
Activity (Homo sapiens [12]): 0%
Activity (Homo sapiens [16]): 0%
Ratio (Streptococcus pneumoniae): > 100
Activity (Homo sapiens [17]): 0%
Activity (Homo sapiens [18]): 0%
Activity (Homo sapiens [22]): 0%
Activity (Homo sapiens [25]): 0%
Activity (Homo sapiens [26]): 0%
Activity (Homo sapiens [47]): 0%
Activity (Homo sapiens [48]): 0%
Activity (Homo sapiens [51]): 0%
